# In patent US20150133492A1, “N-desmethyldauricine, A Novel Autophagic Enhancer for Treatment of Cancers and Neurodegenerative Conditions Thereof” (Macau University of Science and Technology, priority 2013, published 2015):
# Tests used:
# [1] = tested on: human normal liver cells (LO2); assay: MTT cytotoxicity assay, normal liver cells; type: cell-based; details: read-out: IC50, cytotoxic effect
# Method: The test compound of N-desmethyldauricine was dissolved in DMSO at a final concentration of 100 mmol/L and stored at −20° C. Cytotoxicity was assessed using the 3-(4,5-dimethylthiazol-2-yl)-2,5-diphenyltetrazolium bromide assay as previously described^17. Cell number, 4000-8000 of HeLa (human cervical cancer), MCF-7 (human breast cancer), HepG2 (human liver cancer), Hep3B (human liver cancer), H1299 (human lung cancer), A549 (human lung cancer), PC3 (human prostate cancer), LLC-1 (mouse Lewis lung carcinoma) and LO2 (human normal liver) cells were seeded on 96-well plates per well, respectively. After overnight pre-incubation, the cells were exposed to different concentrations of N-desmethyldauricine (namely […], 0.039 μmol) for 3 days. Subsequently, 10 μL of MTT reagents was added to each well and incubated at 37° C. for 4 hours followed by the addition of 100 μL solubilization buffer (10% SDS in 0.01 mol/L HCl) and overnight incubation. Absorbance at 585 nm was determined from each well on the following day. The percentage of cell viability was calculated using the following formula: Cell viability (%)=Cells number treated/Cells number DMSO control×100. Data was obtained from three independent experiments.
# HeLa cells [2] = assay: RT2 Profiler autophagy PCR array; type: cell-based, human
# From the text: For PCR array analysis, N-desmethyldauricine treated HeLa cells were used to obtain the total RNA by Qiagen RNeasy® Mini Kit (Qiagen). The autophagy pathway specific RT-PCR array was used to evaluate the potential alterations of related genes after N-desmethyldauricine treatments in HeLa cells. The autophagy array comprised 87 genes selected based on their involvement in regulating autophagy induction. There were 5 housekeeping genes served as positive controls. Total RNA was reverse transcripted using the RT2 First Strand Kit. Real-time PCR reactions were carried out on ABI 7500 (Applied Biosystems) using the RT2 SYBR® Green qPCR Mastermix (Qiagen) according to manufacturer's instructions. Data analysis was performed using the Qiagen's integrated web-based software package for the PCR Array System, which automatically performs all ΔΔCt based fold-change calculations from raw threshold cycle data.
# [3] = tested on: AMPK-mTOR signaling pathway; assay: Western blot of mTOR signaling marker proteins; type: cell-based, human; details: HeLa
# Method: HeLa cells treated with indicated time and concentrations of N-desmethyldauricine were harvested and lysed in RIPA buffer (Cell Signaling). The cell lysates were then resolved by SDS-PAGE. After electrophoresis, the proteins from SDS-PAGE were transferred to nitrocellulose membrane which was then blocked with 5% non-fat dried milk for 60 minutes. The membrane was then incubated with P-p70S6K, p70S6K, P-AMPK, AMPK and actin primary antibodies (1:1000) in TBST overnight at 4° C. respectively. After that, the membrane was further incubated with HRP-conjugated secondary antibodies for 60 minutes. Finally, protein bands were visualized by using the ECL Western Blotting Detection Reagents (Invitrogen).
# HeLa cells [4] = assay: Calcium detection by flow cytometry (Fluo-3); type: cell-based, human; details: 5 μM/10 μM, 1 h, 2 h, 4 h
# Method: Changes in intracellular free calcium were measured by a fluorescent dye, Fluo-3, as described previously^18. Briefly, HeLa cells were washed twice with MEM medium after N-desmethyldauricine (LP-4) treatment (5 μM/10 μM) for various times (1 h, 2 h, 4 h). Then cell suspensions were incubated with 5 μM Fluo-3 at 37° C. for 30 min. Then the cells were washed twice with HBSS. After re-suspended cell samples were subjected to FACS analysis, at least 10,000 events were analyzed.
# Atg7+/+ cells = assay: Annexin V flow cytometry cell death, Atg7 wild-type MEFs; type: cell-based, mouse; details: 10 μM, 24 h
# Method: Cell viability was measured using an annexin V staining kit (BD Biosciences, San Jose, Calif., USA). Briefly, Atg7 wild-type (Atg7^+/+ or Atg7-wt) and Atg7 deficient (Atg7^−/− or Atg7-ko) mouse embryonic fibroblasts (MEFs) were treated with the 10 μM N-desmethyldauricine for 24 h. Cells were then harvested and analysed by multiparametric flow cytometry using FITC-Annexin V and Propidium iodide staining (BD Biosciences, San Jose, Calif., USA) according to the manufacturer's instructions. Flow cytometry was then carried out using a FACSCalibur flow cytometer (BD Biosciences, San Jose, Calif., USA). Data acquisition and analysis was performed with CellQuest (BD Biosciences, San Jose, Calif., USA). Data were obtained from three independent experiments.
# PC 12 cells = assay: Crystal violet cell viability assay in PC-12; type: cell-based; details: 7.5 μM, 24 hours
# Method: (§1) For cell viability assay measured by crystal violet staining, PC-12 cells were incubated in 35 mm disc followed by the addition of N-desmethyldauricine at 7.5 μM for 24 hours. The cells were then incubated with crystal violet for 10 minutes followed by a ddH2O wash. The stained cells image was captured by CCD digital camera Spot RT3™ under the Nikon ECLIPSE 80i microscope with 4× magnification. Cell viability was quantified by dissolving stained cells in 10% acetic acid (200 μL/well). The colorimetric reading of the solute mixture was then determined by spectrophotometer at OD 560 nm. The percentage of cell viability was calculated using the following formula: Cell viability (%)=Cells numbertreated/Cells numberDMSO control×100. Data was obtained from three independent experiments.
# [5] = tested on: EGFP-tagged mutant huntingtin (Q23, Q55, Q74); assay: Removal of mutant huntingtin by immunoblotting; type: cell-based; details: PC 12, 7.5 μM, 24 hours
# Method: (§2) PC 12 cells were transfected transiently with EGFP-HDQ23/55/74 (Q23, Q55, Q74) plasmids for 24 hours using Lipofectamine Plus LTX reagent (Invitrogen) according to the manufacturer's protocol. The transfected cells were then treated with N-desmethyldauricine for 24 hours. The removal of mutant huntingtin, (Q23, Q55, Q74) were then quantitated by immunoblotting with antibody against EGFP.
# [6] = tested on: mutant huntingtin overexpressed PC 12 cells; assay: Viability of mutant huntingtin overexpressed PC 12 cells; type: cell-based; details: PC 12, 7.5 μM
# Method: as §1, §2
structure (smiles),measurement,setting,value
COc1cc2c(cc1OC)[C@@H](Cc1ccc(Oc3cc(C[C@H]4NCCc5cc(OC)c(OC)cc54)ccc3O)cc1)N(C)CC2 [N-desmethyldauricine],IC50,[1],> 62.1 µM
same,gene regulation during autophagy induction,HeLa cells [2],"regulation of a panel of genes, i.e. Igf1, Fam176a, Ulk1, PERK, Cxcr4 and p62"
same,p70S6K phosphorylation,[3],concomitant reduction
same,phosphorylation of AMPK,[3]; time dependent,activate
same,cytosolic calcium level,HeLa cells [4],increase
same,cell death,Atg7+/+ cells,markedly induce cell death
same,toxicity in PC 12 cells,PC 12 cells,no toxicity
same,clearance of overexpressed EGFP-tagged mutant huntingtin,[5],enhance the clearance
same,cell viability of mutant huntingtin overexpressed PC 12 cells,[6],enhance the cell viability
same,huntingtin aggregates-mediated cytotoxicity,[6],reduce
